Measured values taken from article PMC4268243 (Nuclear medicine and biology, 2014).

Key:
[1] = test system: A549 lung adenocarcinoma cells; experiment: Amino acid uptake and inhibition in A549 cells; type: cell-based, human; settings: A549, 30 minutes incubation
[2] = test system: DU145 androgen-independent prostate carcinoma cells; experiment: Amino acid uptake and inhibition in DU145 cells; type: cell-based, human; settings: DU145, 30 minutes incubation
[3] = test system: U87 glioblastoma cells; experiment: Amino acid uptake and inhibition in U87 cells; type: cell-based, human; settings: for Cell uptake: U87, 30 minutes incubation
[4] = test system: SKOV3 estrogen-positive ovarian adenocarcinoma cells; experiment: Amino acid uptake and inhibition in SKOV3 cells; type: cell-based, human; settings: for Cell uptake: SKOV3, 30 minutes incubation
[5] = test system: U87 tumor xenograft; experiment: Biodistribution in U87 tumor-bearing SCID mice; type: in vivo; settings: listed as (R)-[^18F] FAMP 1
[6] = test system: MDA MB468 tumor xenograft; experiment: Biodistribution in MDA MB468 tumor-bearing SCID mice; type: in vivo
[7] = test system: SKOV3 tumor xenograft; experiment: Biodistribution in SKOV3 tumor-bearing SCID mice; type: in vivo; settings: listed as (R)-[^18F] FAMP 1
[8] = test system: human A549, DU145, U87, MDA MB468 and SKOV3 tumor cells; experiment: Amino acid uptake and inhibition, summary over the five tumor cell lines; type: cell-based
[9] = test system: SCID mice xenograft tumor models; type: in vivo; settings: in most cases, over tumors and time points
[10] = test system: rat orthotopic brain tumor model; settings: rat orthotopic brain tumor model, 60 min; cited from earlier work
[11] = 15 min post injection, listed as (R)-[^18F] FAMP 1
[12] = 30 min post injection, listed as (R)-[^18F] FAMP 1
[13] = 60 min post injection, listed as (R)-[^18F] FAMP 1
[14] = 120 min post injection, listed as (R)-[^18F] FAMP 1

## CC(N)(C[18F])C(=O)O [(R)-[^18F]1] [2-amino-3-[^18F]fluoro-2-methylpropanoic acid]
[1]; 10 mM BCH
  Cell uptake: 2.3±0.3 % ID/5×10^5 cells
[1]; 10 mM MeAIB
  Cell uptake: 4.6±0.5 % ID/5×10^5 cells
[1]; Control (no inhibitor)
  Cell uptake: 5.1±0.3 % ID/5×10^5 cells
[2]; 10 mM BCH
  Cell uptake: 3.3±0.2 % ID/5×10^5 cells
[2]; 10 mM MeAIB
  Cell uptake: 3.6±0.2 % ID/5×10^5 cells
[2]; Control (no inhibitor)
  Cell uptake: 5.1±0.1 % ID/5×10^5 cells
[3]; 10 mM BCH
  Cell uptake: 4.8±0.3 % ID/5×10^5 cells
[3]; 10 mM MeAIB
  Cell uptake: 2.0±0.3 % ID/5×10^5 cells
[3]; Control (no inhibitor)
  Cell uptake: 6.0±0.3 % ID/5×10^5 cells
[3]; U87 cells, 10 mM BCH, relative to control
  inhibition of uptake by BCH: 20%
[3]; U87 cells, 10 mM MeAIB, relative to control
  inhibition of uptake by MeAIB: 67%
[4]; 10 mM BCH
  Cell uptake: 7.6±0.2 % ID/5×10^5 cells
[4]; 10 mM MeAIB
  Cell uptake: 4.6±0.1 % ID/5×10^5 cells
[4]; Control (no inhibitor)
  Cell uptake: 9.2±0.2 % ID/5×10^5 cells
[4]; SKOV3 cells, 10 mM BCH, relative to control
  inhibition of uptake by BCH: 17%
[4]; SKOV3 cells, 10 mM MeAIB, relative to control
  inhibition of uptake by MeAIB: 50%
[5]; 15 min post injection
  uptake in blood: 3.2±0.2 %ID/g
  uptake in bone: 3.2±1.5 %ID/g
  uptake in brain: 0.8±0.2 %ID/g
  uptake in heart: 4.7±1.2 %ID/g
  uptake in kidney: 23±2.5 %ID/g
  uptake in liver: 7.6±2.9 %ID/g
  uptake in lung: 4.7±0.6 %ID/g
  uptake in muscle: 2.2±0.5 %ID/g
  uptake in pancreas: 62±6.3 %ID/g
  uptake in spleen: 19±6.4 %ID/g
  uptake in tumor: 6.5±1.2 %ID/g
[5]; 30 min post injection
  uptake in blood: 2.6±0.7 %ID/g
  uptake in bone: 3.5±0.5 %ID/g
  uptake in brain: 0.9±0.2 %ID/g
  uptake in heart: 4.3±0.6 %ID/g
  uptake in kidney: 15±2.1 %ID/g
  uptake in liver: 7.7±1.5 %ID/g
  uptake in lung: 3.4±0.5 %ID/g
  uptake in muscle: 2.2±0.5 %ID/g
  uptake in pancreas: 43±8.2 %ID/g
  uptake in spleen: 13±2.4 %ID/g
  uptake in tumor: 6.0±0.9 %ID/g
[5]; 60 min post injection
  uptake in blood: 1.6±0.4 %ID/g
  uptake in bone: 3.2±0.8 %ID/g
  uptake in brain: 1.2±0.2 %ID/g
  uptake in heart: 4.2±0.9 %ID/g
  uptake in kidney: 8.0±1.8 %ID/g
  uptake in liver: 6.9±1.4 %ID/g
  uptake in lung: 2.4±0.6 %ID/g
  uptake in muscle: 2.9±0.6 %ID/g
  uptake in pancreas: 28±5.0 %ID/g
  uptake in spleen: 7.0±1.4 %ID/g
  uptake in tumor: 4.2±0.3 %ID/g
[5]; 120 min post injection
  uptake in blood: 0.8±0.1 %ID/g
  uptake in bone: 1.5±0.2 %ID/g
  uptake in brain: 1.2±0.1 %ID/g
  uptake in heart: 3.6±0.4 %ID/g
  uptake in kidney: 4.2±0.4 %ID/g
  uptake in liver: 8.0±0.7 %ID/g
  uptake in lung: 1.3±0.2 %ID/g
  uptake in muscle: 1.6±0.2 %ID/g
  uptake in pancreas: 15.1±3.2 %ID/g
  uptake in spleen: 3.5±0.4 %ID/g
  uptake in tumor: 3.1±0.8 %ID/g
[6]; [11]
  uptake in blood: 3.0±0.2 %ID/g
  uptake in bone: 2.7±0.6 %ID/g
  uptake in brain: 0.7±0.2 %ID/g
  uptake in heart: 3.9±0.6 %ID/g
  uptake in kidney: 17±2.3 %ID/g
  uptake in liver: 4.4±0.9 %ID/g
  uptake in lung: 5.4±0.6 %ID/g
  uptake in muscle: 2.2±0.8 %ID/g
  uptake in pancreas: 61±8.4 %ID/g
  uptake in spleen: 8.7±2.2 %ID/g
  uptake in tumor: 6.0±1.8 %ID/g
[6]; [12]
  uptake in blood: 2.0±0.4 %ID/g
  uptake in bone: 2.2±0.6 %ID/g
  uptake in brain: 0.8±0.1 %ID/g
  uptake in heart: 3.5±1.0 %ID/g
  uptake in kidney: 9.1±2.8 %ID/g
  uptake in liver: 4.5±1.0 %ID/g
  uptake in lung: 3.3±1.1 %ID/g
  uptake in muscle: 2.0±0.6 %ID/g
  uptake in pancreas: 39±11 %ID/g
  uptake in spleen: 6.5±1.1 %ID/g
  uptake in tumor: 5.3±1.7 %ID/g
[6]; 60 min post injection
  uptake in tumor: 4.8±1.2 %ID/g
[6]; [13]
  uptake in blood: 1.1±0.3 %ID/g
  uptake in bone: 1.7±0.5 %ID/g
  uptake in brain: 0.8±0.1 %ID/g
  uptake in heart: 3.3±0.8 %ID/g
  uptake in kidney: 5.0±1.1 %ID/g
  uptake in liver: 3.8±0.9 %ID/g
  uptake in lung: 2.2±0.5 %ID/g
  uptake in muscle: 2.0±0.6 %ID/g
  uptake in pancreas: 20±7.2 %ID/g
  uptake in spleen: 4.1±1.3 %ID/g
[6]; [14]
  uptake in blood: 0.5±0.2 %ID/g
  uptake in bone: 1.1±0.5 %ID/g
  uptake in brain: 0.9±0.1 %ID/g
  uptake in heart: 2.3±0.4 %ID/g
  uptake in kidney: 2.4±1.1 %ID/g
  uptake in liver: 4.1±0.8 %ID/g
  uptake in lung: 1.1±0.4 %ID/g
  uptake in muscle: 1.6±0.6 %ID/g
  uptake in pancreas: 11±4.6 %ID/g
  uptake in spleen: 2.2±1.1 %ID/g
  uptake in tumor: 3.6±0.7 %ID/g
[7]; 15 min post injection
  uptake in bone: 2.6±1.0 %ID/g
  uptake in brain: 0.7±0.4 %ID/g
  uptake in heart: 4.0±2.1 %ID/g
  uptake in kidney: 17±4.5 %ID/g
  uptake in liver: 4.6±2.5 %ID/g
  uptake in lung: 3.9±1.3 %ID/g
  uptake in muscle: 2.3±1.1 %ID/g
  uptake in pancreas: 38±18 %ID/g
  uptake in spleen: 8.7±3.4 %ID/g
  uptake in tumor: 10±4.8 %ID/g
[7]; 30 min post injection
  uptake in blood: 2.7±0.3 %ID/g
  uptake in bone: 2.8±0.7 %ID/g
  uptake in brain: 1.0±0.04 %ID/g
  uptake in heart: 4.9±0.1 %ID/g
  uptake in kidney: 14±2.6 %ID/g
  uptake in liver: 5.0±0.7 %ID/g
  uptake in lung: 3.1±0.3 %ID/g
  uptake in muscle: 2.8±0.3 %ID/g
  uptake in pancreas: 41±7.4 %ID/g
  uptake in spleen: 13±3.6 %ID/g
  uptake in tumor: 14±1.1 %ID/g
[7]; 60 min post injection
  uptake in blood: 2.1±0.1 %ID/g
  uptake in bone: 2.3±0.3 %ID/g
  uptake in brain: 1.0±0.3 %ID/g
  uptake in heart: 4.9±1.1 %ID/g
  uptake in kidney: 10±0.8 %ID/g
  uptake in liver: 4.5±0.3 %ID/g
  uptake in lung: 2.5±0.3 %ID/g
  uptake in muscle: 2.6±0.6 %ID/g
  uptake in pancreas: 34±4.7 %ID/g
  uptake in spleen: 6.8±1.0 %ID/g
  uptake in tumor: 9.0±2.2 %ID/g
[7]; 120 min post injection
  uptake in blood: 1.5±0.2 %ID/g
  uptake in bone: 1.9±0.4 %ID/g
  uptake in brain: 1.2±0.2 %ID/g
  uptake in heart: 3.6±0.6 %ID/g
  uptake in kidney: 7.0±0.8 %ID/g
  uptake in liver: 2.7±0.5 %ID/g
  uptake in lung: 1.8±0.3 %ID/g
  uptake in muscle: 2.0±0.4 %ID/g
  uptake in pancreas: 19±2.4 %ID/g
  uptake in spleen: 4.5±1.1 %ID/g
  uptake in tumor: 6.2±0.5 %ID/g
[8]; 10 mM BCH, relative to control, most cell lines
  inhibition of uptake by BCH: 36-68%
[8]; 10 mM MeAIB, relative to control, most cell lines
  inhibition of uptake by MeAIB: 10-32%
[8]; 30 minutes incubation, without inhibitors, range over the cell lines
  uptake in tumor cells: 5-9 %ID/5×10^5 cells
[8]; AAT cell inhibition assays with MeAIB and BCH
  amino acid transport system mediating uptake / selectivity: mixed AATs, likely but not limited to system A and system L
[9]
  ratio of tumor to muscle: above 2.5
[10]
  brain uptake: 0.1±0.02 %ID/g
